Values joined by “and” are separate entries in the source; they are usually repeats but may differ in a detail not shown here. Identical values can stand only once.
Assays:
[1] = tested on: monolayer of bEnd.3 mouse brain endothelial cells; assay: Permeability across a monolayer of brain endothelial cells (in vitro BBB model); assay type: in vitro ADME; parameters: Diffusion of FITC-TAT across bEnd.3 monolayer / Diffusion of FITC-linked peptide across bEnd.3 monolayer / Diffusion of FITC-TAT across bEnd.3 monolayer, FITC-TAT + TAT / Diffusion of FITC-TAT across bEnd.3 monolayer, FITC-TAT + TATK/R>A: unit not given here; conditions: for Diffusion of FITC-TAT across bEnd.3 monolayer, FITC-TAT + TAT: FITC-TAT 10 μM coupled with non-FITC TAT 10 μM; for Diffusion of FITC-TAT across bEnd.3 monolayer, FITC-TAT + TAT / Diffusion of FITC-TAT across bEnd.3 monolayer, FITC-TAT + TATK/R>A / Diffusion of FITC-TAT across bEnd.3 monolayer / Diffusion of FITC-linked peptide across bEnd.3 monolayer: fluorescence spectrophotometry; for Diffusion of FITC-TAT across bEnd.3 monolayer, FITC-TAT + TATK/R>A: FITC-TAT 10 μM coupled with non-FITC TAT^K/R>A 10 μM; for Diffusion of FITC-TAT across bEnd.3 monolayer: bEnd.3 monolayer on Transwell, serum-free DMEM
[2] = endothelial monolayers absent; FITC-TAT 10 μM; Fig 1A
Description: (§1) Briefly, the cells were seeded onto 24-well culture inserts (Falcon Permeable Support for 24-well plate; cat. #353104), and one-half of the medium was replaced every other day, and the cells were cultured for 5 days prior to the performance of a permeability assay. On the day of the assay, the culture medium was replaced with serum-free DMEM with FITC-linked peptides or bovine serum albumin (Sigma).

[3] = tested on: monolayer of bEnd.3 brain endothelial cells; conditions: 1000 μM TAT; Fig 5A
Description: as §1
Medium collected from cell culture in vitro (12 μl medium per culture) and tissue samples harvested from mice in vivo were denatured by boiling in lysis buffer, separated by electrophoresis, transferred onto PVDF membranes, and imaged after incubation in primary and secondary antibodies as described previously for in vitro [55] and in vivo [57] experiments. The following primary antibodies were used: anti-albumin (1:2000; GeneTex, cat. #102419, for the in vitro experiments; 1:5000; Abcam, cat. #ab106582, for the in vivo experiments) and anti-ɑ-tubulin (1:5000; GeneTex, cat. #GTX628802) antibodies, and the following secondary antibodies were used: anti-rabbit (1:5000; GeneTex, cat. #GTX213110-01), anti-mouse (1:1000; GeneTex, cat. #GTX213111-01), and anti-chicken (1:1000; Abcam, cat. #ab97135) antibodies.

[4] = diffusion time 0.1 h, individual cultures n = 3
[5] = diffusion time 12 h, individual cultures n = 3
[6] = diffusion time 24 h, individual cultures n = 3

SMILES: N=C(N)NCCC[C@H](NC(=O)[C@H](CCCNC(=N)N)NC(=O)[C@H](CCCNC(=N)N)NC(=O)[C@H](CCC(N)=O)NC(=O)[C@H](CCCNC(=N)N)NC(=O)[C@H](CCCNC(=N)N)NC(=O)[C@H](CCCCN)NC(=O)[C@H](CCCCN)NC(=O)[C@H](CCCNC(=N)N)NC(=O)CNC(=O)[C@H](Cc1ccc(O)cc1)NC(=S)Nc1ccc2c(c1)C(=O)OC21c2ccc(O)cc2Oc2cc(O)ccc21)C(=O)O [FITC-TAT]
- Diffusion of FITC-TAT from upper to lower chamber of Transwell inserts ([1]; 37°C, regardless of whether monolayers of brain endothelial cells were cultured on the membranes, Fig 1A and 1B): readily diffused across to the lower chamber
- Diffusion of FITC-TAT across bEnd.3 monolayer, FITC-TAT + TAT [1, 4]: 1.844 and 1.839 and 1.804
- Diffusion of FITC-TAT across bEnd.3 monolayer, FITC-TAT + TAT [1, 5]: 42.0052 and 42.275 and 41.3436
- Diffusion of FITC-TAT across bEnd.3 monolayer, FITC-TAT + TAT [1, 6]: 90.1666 and 89.6029 and 94.8903
- Diffusion of FITC-TAT across bEnd.3 monolayer, FITC-TAT + TATK/R>A [1, 4]: 1.736 and 1.755 and 1.705
- Diffusion of FITC-TAT across bEnd.3 monolayer, FITC-TAT + TATK/R>A [1, 5]: 41.331 and 40.0366 and 39.1388
- Diffusion of FITC-TAT across bEnd.3 monolayer, FITC-TAT + TATK/R>A [1, 6]: 85.9302 and 85.5824 and 85.3453
- Effect of the presence of non-FITC TAT or non-FITC TAT^K/R>A on permeability of the monolayer to FITC-TAT ([1]; FITC-TAT 10 μM with 10 μM competitor, Fig 3D): only marginally decreased
- Effect of NaN3 and 2-DG treatment regimens on ability of FITC-TAT to cross the monolayer ([1]; FITC-TAT 10 μM, NaN3 10 mM and 2-DG 6 mM, 1 h pre-treatment or 24 h, Fig 2B): neither treatment regimens had an effect
- Diffusion of FITC-TAT across bEnd.3 monolayer ([1]; FITC-TAT 10 μM, 4°C, diffusion time 0 h, individual cultures n = 10): 1.386 and 10.0745 and 1.495 and 1.465 and 7.9907 and 7.9 and 8.057 and 7.849 and 10.0907 and 10.1377
- Diffusion of FITC-TAT across bEnd.3 monolayer ([1]; FITC-TAT 10 μM, 4°C, diffusion time 0.5 h, individual cultures n = 10): 2.727 and 10.2694 and 1.946 and 2.6148 and 12.2754 and 11.4859 and 13.8266 and 14.9326 and 10.2588 and 10.1802
- Diffusion of FITC-TAT across bEnd.3 monolayer ([1]; FITC-TAT 10 μM, 4°C, diffusion time 1 h, individual cultures n = 10): 3.318 and 12.0592 and 3.998 and 4.153 and 14.099 and 14.1024 and 12.2279 and 14.4626 and 12.8546 and 12.5004
- Diffusion of FITC-TAT across bEnd.3 monolayer ([1]; FITC-TAT 10 μM, 4°C, diffusion time 2 h, individual cultures n = 10): 4.184 and 12.4226 and 4.5396 and 5.958 and 21.4454 and 17.4004 and 16.7345 and 14.5981 and 18.4195 and 13.6876
- Diffusion of FITC-TAT across bEnd.3 monolayer ([1]; FITC-TAT 10 μM, 4°C, diffusion time 4 h, individual cultures n = 10): 12.2948 and 22.4089 and 5.603 and 11.4776 and 26.9335 and 21.9034 and 18.3373 and 22.0326 and 23.9812 and 20.9146
- Diffusion of FITC-TAT across bEnd.3 monolayer ([1]; FITC-TAT 10 μM, 4°C, diffusion time 8 h, individual cultures n = 10): 23.6561 and 36.4429 and 7.1971 and 15.1917 and 28.8919 and 24.9217 and 33.0378 and 37.6449 and 33.9313 and 51.5353
- Diffusion of FITC-TAT across bEnd.3 monolayer ([1]; FITC-TAT 10 μM, 4°C, diffusion time 12 h, individual cultures n = 10): 44.603 and 38.3865 and 18.3523 and 26.8326 and 40.1964 and 39.8496 and 31.2218 and 52.2936 and 30.2304 and 54.311
- Diffusion of FITC-TAT across bEnd.3 monolayer ([1]; FITC-TAT 10 μM, 37°C, diffusion time 0 h, individual cultures n = 8): 2.7408 and 2.991 and 8.292 and 8.146 and 7.613 and 9.624 and 9.686 and 9.768
- Diffusion of FITC-TAT across bEnd.3 monolayer ([1]; FITC-TAT 10 μM, 37°C, diffusion time 0.5 h, individual cultures n = 8): 5.546 and 5.194 and 16.5195 and 13.9086 and 14.4213 and 13.3482 and 14.7024 and 14.0517
- Diffusion of FITC-TAT across bEnd.3 monolayer ([1]; FITC-TAT 10 μM, 37°C, diffusion time 1 h, individual cultures n = 8): 8.062 and 7.828 and 16.9226 and 16.4917 and 15.6732 and 12.2867 and 19.4469 and 13.4865
- Diffusion of FITC-TAT across bEnd.3 monolayer ([1]; FITC-TAT 10 μM, 37°C, diffusion time 2 h, individual cultures n = 8): 13.5165 and 10.5024 and 28.7248 and 24.7001 and 24.2495 and 24.3505
- FITC-TAT movement across the endothelial monolayer with cytochalasin D ([1]; cells incubated with 100 μM cytochalasin D, FITC-TAT 10 μM, Fig 4D): increased rather than inhibited
- Effect of lowering the temperature to 4°C on diffusion of FITC-TAT across Transwell inserts ([1]; endothelial monolayers present, FITC-TAT 10 μM, Fig 1B): substantially decreased
- Diffusion of FITC-linked peptide across bEnd.3 monolayer ([1]; peptide 1 μM (Fig 3A), diffusion time 0.1 h, individual cultures n = 4): 16.1034 and 15.6278 and 16.2621 and 16.9227
- Diffusion of FITC-linked peptide across bEnd.3 monolayer ([1]; peptide 1 μM (Fig 3A), diffusion time 4 h, individual cultures n = 4): 33.068 and 35.9601 and 44.67 and 33.2662
- Diffusion of FITC-linked peptide across bEnd.3 monolayer ([1]; peptide 1 μM (Fig 3A), diffusion time 12 h, individual cultures n = 4): 59.5062 and 62.0797 and 69.9514 and 60.3513
- Diffusion of FITC-linked peptide across bEnd.3 monolayer ([1]; peptide 1 μM (Fig 3A), diffusion time 24 h, individual cultures n = 4): 98.4329 and 97.1083 and 108.448 and 96.0109
- Diffusion of FITC-linked peptide across bEnd.3 monolayer ([1]; peptide 3 μM (Fig 3B), diffusion time 0.1 h, individual cultures n = 4): 5.536 and 5.776 and 5.613 and 5.958
- Diffusion of FITC-linked peptide across bEnd.3 monolayer ([1]; peptide 3 μM (Fig 3B), diffusion time 4 h, individual cultures n = 4): 30.6967 and 26.8471 and 24.0637 and 21.038
- Diffusion of FITC-linked peptide across bEnd.3 monolayer ([1]; peptide 3 μM (Fig 3B), diffusion time 12 h, individual cultures n = 4): 69.4896 and 55.4891 and 51.5686 and 64.8124
- Diffusion of FITC-linked peptide across bEnd.3 monolayer ([1]; peptide 3 μM (Fig 3B), diffusion time 24 h, individual cultures n = 4): 112.045 and 93.6163 and 91.1166 and 103.222
- Diffusion of FITC-linked peptide across bEnd.3 monolayer ([1]; peptide 10 μM (Fig 3C), diffusion time 0.1 h, individual cultures n = 4): 1.488 and 1.536 and 1.502 and 1.69
- Diffusion of FITC-linked peptide across bEnd.3 monolayer ([1]; peptide 10 μM (Fig 3C), diffusion time 4 h, individual cultures n = 4): 20.2675 and 19.471 and 18.2115 and 22.8397
- Diffusion of FITC-linked peptide across bEnd.3 monolayer ([1]; peptide 10 μM (Fig 3C), diffusion time 12 h, individual cultures n = 4): 55.3743 and 53.9149 and 46.6389 and 56.9448
- Diffusion of FITC-linked peptide across bEnd.3 monolayer ([1]; peptide 10 μM (Fig 3C), diffusion time 24 h, individual cultures n = 4): 95.2978 and 101.031 and 98.8203 and 104.851
- Diffusion of FITC-linked peptide across bEnd.3 monolayer ([1]; peptide 10 μM alone (Fig 3D), diffusion time 0.1 h, individual cultures n = 3): 1.749 and 1.772 and 1.79
- Diffusion of FITC-linked peptide across bEnd.3 monolayer ([1]; peptide 10 μM alone (Fig 3D), diffusion time 12 h, individual cultures n = 3): 43.9695 and 46.4386 and 47.7244
- Diffusion of FITC-linked peptide across bEnd.3 monolayer ([1]; peptide 10 μM alone (Fig 3D), diffusion time 24 h, individual cultures n = 3): 96.1412 and 98.5343 and 105.324
- Effect of lowering the temperature to 4°C on diffusion of FITC-TAT across Transwell inserts [2]: had no effect

SMILES: N=C(N)NCCC[C@H](NC(=O)[C@H](CCCNC(=N)N)NC(=O)[C@H](CCCNC(=N)N)NC(=O)[C@H](CCC(N)=O)NC(=O)[C@H](CCCNC(=N)N)NC(=O)[C@H](CCCNC(=N)N)NC(=O)[C@H](CCCCN)NC(=O)[C@H](CCCCN)NC(=O)[C@H](CCCNC(=N)N)NC(=O)CNC(=O)[C@@H](N)Cc1ccc(O)cc1)C(=O)O [TAT]
- Effect of TAT on the amount of albumin that crossed the monolayer [3]: significantly increased
